According to patent US20120009601A1, “METHODS AND COMPOSITIONS FOR REPROGRAMMING CELLS” (THE GENERAL HOSPITAL CORPORATION, priority 2010, published 2012):
Entries after “also recorded” stand apart in the source; their conditions may differ.

What was measured:
[1] = system: induced hepatocyte-like cells (iHep); test: Generation of human iPS cells (iPS-hHepC) from induced hepatocyte-like cells (iHep); format: cell-based; conditions: 96 hr
Protocol: Human induced pluripotent stem (iPS) cells were generated from the hepatocyte-like cells that had been generated from human hepatoma cells, using 5′-aza-2′-deoxycytidine (5-AZAC) plus trichostatin A (TSA) without Oct3/4 and c-Myc. The iHep were maintained using a medium for Primate ES cell culture supplemented with 40 ng/ml of hepatocytes growth factor and 20 ng/ml of epidermal growth factor. Furthermore, 500 nM 5′-aza-2′ deoxycytidine (5-AZAC), 150 nM trichostatin A (TSA), 1 μM EMD 616452 as an inhibitor for Tgf beta receptor I kinase/activin-like kinase 5 (Alk5) and 0.5 mM valproic acid (VPA) were administered in the Primate ES cell medium for 96 hr. After 14 days, human iPS cells (iPS-hHepC) were established. Oct3/4 was reactivated by 5-AZAC+TSA. Furthermore, Sox2 and Klf4 were reactivated by EMD 616452 and VPA, respectively.

[2] = system: human iPS cells which carry mutant p53; test: PRIMA-1 treatment of human iPS cells carrying mutant p53 (p21 expression, p53-dependent apoptosis); format: cell-based; conditions: PRIMA-1 20 μM
Protocol: Next, human iPS cells that carry mutant p53 were selected and treated with PRIMA-1 (20 μM).

[3] = system: human iPS cells having wild-types p53; test: PRIMA-1 treatment of human iPS cells carrying wild-type p53 (p53-dependent apoptosis); format: cell-based; conditions: PRIMA-1 20 μM; human iPS cells with wild-type p53
[4] = system: human iPS cells that carry mutant p53; test: Evaluation of cancerous risk: microvessel density (MVD) within teratomas from human iPS cell lines in mice; format: in vivo; conditions: cells treated with PRIMA-1 20 μM; teratomas in immunodeficient mice, anti-CD31 immunofluorescence
Text: The various human iPS cell lines (No. 1-No. 4) were inoculated intramuscularly into immunodeficient mice (Rag2^−/− Il2rg^−/−). Then, microvessel density (MVD) was compared within teratomas in mice among each group. Furthermore, for angiogenesis in teratomas from each human iPS cell lines, microvessel density (MVD) per high-powered field (h.p.f.) of teratomas was quantified by human-specific anti-CD31 immunofluorescence. n=3-6; All values were mean±s.e.m.
By using microvessel density analysis (MVD) within SCID mice that were transplanted with ChiPS cell lines, risk evaluation of malignant transformations were performed for human iPS cell lines established by various methods (3) (4) (5) (6), including the results described herein (FIG. 9). […] Then, p53-175N, p53-175S and p53-175D were identified as p53-mutational spots in human iPS cells which carry mutant p53, with codon 175 in human p53 being known as one mutational spot in human cancer (7).

Structure (SMILES): Cc1cccc(-c2[nH]ncc2-c2ccc3ncccc3n2)n1 [EMD 616452]
- Sox2 reactivation ([1]; 1 μM EMD 616452, Primate ES cell medium): reactivated

Structure (SMILES): O=C1C2CCN(CC2)C1(CO)CO [PRIMA-1, 2,2-Bis(hydroxymethyl)-1-azabicyclo[2.2.2]octan-3-one]
- induction of p53-dependent apoptosis ([2]; human iPS cells that have mutant p53): induction of p53-dependent apoptosis
- expression of p53 target genes p21 ([2]; human iPS cells which carry mutant p53): induced
- induction of p53-dependent apoptosis [3]: not observed; also recorded: not found
- MVD in human iPS cells carrying mutant p53 [4]: equivalent to that of human iPS cell lines established by small molecules

Structure (SMILES): CCCC(CCC)C(=O)O [VPA, valproic acid]
- Klf4 reactivation ([1]; 0.5 mM VPA, Primate ES cell medium): reactivated
